Reference: the NIST ThermoML archive (doi:10.1016/j.jct.2004.07.031)
Where “and” joins values, the source holds several entries; their conditions need not be identical. Equal entries are not always repeated. Numbers after ± are expanded uncertainties.

Test: molar heat capacity at constant pressure
Conditions: 101.33 kPa, Crystal, PPMS instrument (Quantum Design)

O=P([O-])([O-])[O-].[Gd+3] [gadolinium orthophosphate]
Conditions	molar heat capacity at constant pressure
0.525 K	7.722 ± 0.24 J/K/mol
0.536 K	8.106 ± 0.26 J/K/mol
0.547 K	8.475 ± 0.27 J/K/mol
0.558 K	8.855 ± 0.29 J/K/mol
0.569 K	9.277 ± 0.3 J/K/mol
0.58 K	9.631 ± 0.31 J/K/mol
0.591 K	10.11 ± 0.33 J/K/mol
0.602 K	10.69 ± 0.35 J/K/mol
0.614 K	11.24 ± 0.37 J/K/mol
0.625 K	11.83 ± 0.4 J/K/mol
0.637 K	12.57 ± 0.42 J/K/mol
0.648 K	13.42 ± 0.45 J/K/mol
0.659 K	14.37 ± 0.49 J/K/mol
0.67 K	15.29 ± 0.52 J/K/mol
0.681 K	16.55 ± 0.57 J/K/mol
0.693 K	17.9 ± 0.62 J/K/mol
0.703 K	19.56 ± 0.68 J/K/mol
0.715 K	21.6 ± 0.76 J/K/mol
0.726 K	24.07 ± 0.84 J/K/mol
0.73 K	25.16 ± 0.88 J/K/mol
0.733 K	26.31 ± 0.92 J/K/mol
0.737 K	27.55 ± 0.97 J/K/mol
0.738 K	27.92 ± 0.98 J/K/mol
0.742 K	29.69 ± 1 J/K/mol
0.743 K	29.92 ± 1.1 J/K/mol
0.745 K	31.34 ± 1.1 J/K/mol
0.747 K	31.86 ± 1.1 J/K/mol
0.75 K	33.48 ± 1.2 J/K/mol
0.751 K	34.37 ± 1.2 J/K/mol
0.752 K	35.17 ± 1.3 J/K/mol
0.755 K	37.19 ± 1.3 J/K/mol
0.756 K	37.83 ± 1.4 J/K/mol
0.758 K	40.08 ± 1.4 J/K/mol
0.76 K	41.57 ± 1.5 J/K/mol
0.763 K	44.62 ± 1.6 J/K/mol
0.764 K	46.25 ± 1.7 J/K/mol
0.765 K	47.54 ± 1.7 J/K/mol
0.768 K	50.76 ± 1.8 J/K/mol
0.77 K	52.55 ± 1.9 J/K/mol
0.772 K	53.77 ± 1.9 J/K/mol
0.773 K	54.78 ± 2 J/K/mol
0.776 K	54.21 ± 2 J/K/mol
0.777 K	51.7 ± 1.9 J/K/mol and 54.18 ± 2 J/K/mol
0.782 K	37.73 ± 1.4 J/K/mol
0.783 K	33.58 ± 1.2 J/K/mol
0.784 K	31.28 ± 1.1 J/K/mol
0.786 K	23.82 ± 0.85 J/K/mol
0.79 K	19.56 ± 0.69 J/K/mol
0.791 K	19.09 ± 0.67 J/K/mol
0.794 K	17.74 ± 0.62 J/K/mol
0.796 K	16.84 ± 0.59 J/K/mol
0.797 K	16.39 ± 0.57 J/K/mol
0.799 K	15.8 ± 0.54 J/K/mol
0.8 K	15.62 ± 0.54 J/K/mol
0.804 K	14.83 ± 0.51 J/K/mol
0.806 K	14.48 ± 0.49 J/K/mol
0.816 K	13.11 ± 0.45 J/K/mol
0.843 K	11.32 ± 0.35 J/K/mol
0.867 K	10.3 ± 0.32 J/K/mol
0.872 K	10.13 ± 0.32 J/K/mol
0.882 K	9.827 ± 0.31 J/K/mol
0.89 K	9.584 ± 0.3 J/K/mol
0.892 K	9.579 ± 0.3 J/K/mol
0.902 K	9.269 ± 0.29 J/K/mol
0.912 K	9.065 ± 0.29 J/K/mol
0.914 K	9.009 ± 0.28 J/K/mol
0.922 K	8.871 ± 0.28 J/K/mol
0.933 K	8.692 ± 0.27 J/K/mol
0.939 K	8.538 ± 0.27 J/K/mol
0.942 K	8.499 ± 0.27 J/K/mol
0.952 K	8.332 ± 0.26 J/K/mol
0.962 K	8.221 ± 0.26 J/K/mol
0.963 K	8.167 ± 0.26 J/K/mol
0.973 K	8.056 ± 0.25 J/K/mol
0.983 K	7.933 ± 0.25 J/K/mol
0.986 K	7.919 ± 0.25 J/K/mol
0.993 K	7.852 ± 0.25 J/K/mol
1.003 K	7.778 ± 0.25 J/K/mol
1.01 K	7.554 ± 0.24 J/K/mol
1.059 K	6.868 ± 0.22 J/K/mol
1.141 K	6.058 ± 0.2 J/K/mol
1.22 K	5.523 ± 0.18 J/K/mol
1.301 K	4.919 ± 0.16 J/K/mol
1.381 K	4.476 ± 0.15 J/K/mol
1.461 K	4.061 ± 0.14 J/K/mol
1.544 K	3.711 ± 0.14 J/K/mol
1.619 K	3.447 ± 0.18 J/K/mol
1.699 K	3.178 ± 0.42 J/K/mol
1.78 K	2.944 ± 0.14 J/K/mol
1.841 K	2.578 ± 0.12 J/K/mol
1.86 K	2.751 ± 0.12 J/K/mol
1.94 K	2.578 ± 0.1 J/K/mol
2.02 K	2.372 ± 0.092 J/K/mol
2.234 K	1.874 ± 0.072 J/K/mol
2.648 K	1.377 ± 0.049 J/K/mol
3.055 K	1.063 ± 0.037 J/K/mol
3.464 K	0.8457 ± 0.027 J/K/mol
3.872 K	0.6931 ± 0.022 J/K/mol
4.291 K	0.57 ± 0.018 J/K/mol
4.675 K	0.4911 ± 0.015 J/K/mol
5.081 K	0.4292 ± 0.013 J/K/mol
5.499 K	0.3415 ± 0.01 J/K/mol
5.896 K	0.3389 ± 0.01 J/K/mol
6.3 K	0.3079 ± 0.0093 J/K/mol
6.728 K	0.2809 ± 0.0085 J/K/mol
7.126 K	0.2659 ± 0.008 J/K/mol
7.523 K	0.2545 ± 0.0076 J/K/mol
7.936 K	0.2483 ± 0.0075 J/K/mol
8.343 K	0.2454 ± 0.0074 J/K/mol
8.747 K	0.246 ± 0.0074 J/K/mol
8.971 K	0.2476 ± 0.0074 J/K/mol
9.151 K	0.2497 ± 0.0075 J/K/mol
9.554 K	0.2573 ± 0.0077 J/K/mol
9.964 K	0.2698 ± 0.0081 J/K/mol
9.976 K	0.2696 ± 0.0081 J/K/mol
10.96 K	0.3114 ± 0.0094 J/K/mol
11.94 K	0.3719 ± 0.011 J/K/mol
12.94 K	0.4546 ± 0.014 J/K/mol
13.93 K	0.5628 ± 0.017 J/K/mol
14.93 K	0.6954 ± 0.021 J/K/mol
15.93 K	0.8555 ± 0.026 J/K/mol
16.93 K	1.039 ± 0.031 J/K/mol
17.94 K	1.247 ± 0.038 J/K/mol
18.95 K	1.476 ± 0.045 J/K/mol
19.95 K	1.752 ± 0.053 J/K/mol
20.95 K	2.036 ± 0.061 J/K/mol
21.96 K	2.353 ± 0.071 J/K/mol
22.97 K	2.692 ± 0.081 J/K/mol
23.97 K	3.053 ± 0.092 J/K/mol
24.98 K	3.44 ± 0.1 J/K/mol
25.98 K	3.849 ± 0.12 J/K/mol
26.99 K	4.279 ± 0.13 J/K/mol
28 K	4.714 ± 0.14 J/K/mol
29 K	5.169 ± 0.16 J/K/mol
30.01 K	5.631 ± 0.17 J/K/mol
32 K	6.652 ± 0.2 J/K/mol
34 K	7.603 ± 0.23 J/K/mol
36.02 K	8.663 ± 0.26 J/K/mol
38.05 K	9.792 ± 0.29 J/K/mol
40.06 K	10.89 ± 0.33 J/K/mol
42.08 K	12.02 ± 0.36 J/K/mol
44.09 K	13.17 ± 0.4 J/K/mol
46.11 K	14.35 ± 0.43 J/K/mol
48.12 K	15.55 ± 0.47 J/K/mol
50.14 K	16.75 ± 0.5 J/K/mol
53.15 K	18.58 ± 0.56 J/K/mol
56.16 K	20.4 ± 0.61 J/K/mol
59.19 K	22.22 ± 0.67 J/K/mol
62.22 K	24.02 ± 0.72 J/K/mol
65.24 K	25.8 ± 0.77 J/K/mol
68.26 K	27.54 ± 0.83 J/K/mol
71.29 K	29.29 ± 0.88 J/K/mol
74.3 K	31.02 ± 0.93 J/K/mol
77.33 K	32.72 ± 0.98 J/K/mol
80.35 K	34.4 ± 1 J/K/mol
85.39 K	37.09 ± 1.1 J/K/mol
92.14 K	40.56 ± 1.2 J/K/mol
98.9 K	43.87 ± 1.3 J/K/mol
105.7 K	47.02 ± 1.4 J/K/mol
112.4 K	50.06 ± 1.5 J/K/mol
119.2 K	53.01 ± 1.6 J/K/mol
126 K	55.84 ± 1.7 J/K/mol
132.7 K	58.53 ± 1.8 J/K/mol
139.5 K	61.13 ± 1.8 J/K/mol
146.3 K	63.67 ± 1.9 J/K/mol
153 K	65.98 ± 2 J/K/mol
159.8 K	68.28 ± 2 J/K/mol
166.6 K	70.53 ± 2.1 J/K/mol
173.3 K	72.7 ± 2.2 J/K/mol
180.1 K	74.71 ± 2.2 J/K/mol
186.8 K	76.76 ± 2.3 J/K/mol
193.6 K	78.76 ± 2.4 J/K/mol
200.4 K	80.59 ± 2.4 J/K/mol
207.1 K	82.32 ± 2.5 J/K/mol
213.8 K	84.09 ± 2.5 J/K/mol
220.6 K	85.76 ± 2.6 J/K/mol
227.4 K	87.27 ± 2.6 J/K/mol
234.1 K	88.95 ± 2.7 J/K/mol
240.9 K	90.53 ± 2.7 J/K/mol
247.7 K	92.18 ± 2.8 J/K/mol
254.4 K	93.53 ± 2.8 J/K/mol
261.1 K	94.92 ± 2.8 J/K/mol
267.9 K	96.45 ± 2.9 J/K/mol
274.6 K	97.84 ± 2.9 J/K/mol
281.3 K	98.99 ± 3 J/K/mol
288.1 K	100.29 ± 3 J/K/mol
294.8 K	101.42 ± 3 J/K/mol
301.6 K	102.56 ± 3.1 J/K/mol
